Measurements reported in patent US11529361B2, “Halogenated salicylanilides for treating Clostridium infections” (UNION therapeutics A/S, priority 2015, dated 2022).
Values after ≈ are worked out from the molar mass of the structure shown. Read-outs that look alike come from different tables or passages of the source.

How the values were obtained:
[1] = tested on: C. difficile clinical isolates; assay: MIC determination by microbroth dilution per CLSI guideline (Example 1); format: cell-based, Clostridium difficile; settings: Clostridioides difficile
[2] = tested on: C. difficile clinical isolates; settings: C. difficile strain ATCC 700057, reference control; cited from earlier work
C. difficile = settings: published data (footnote a); cited from earlier work

## CN[C@H](CC(C)C)C(=O)N[C@H]1C(=O)N[C@@H](CC(N)=O)C(=O)N[C@H]2C(=O)N[C@H]3C(=O)N[C@H](C(=O)N[C@H](C(=O)O)c4cc(O)cc(O)c4-c4cc3ccc4O)[C@H](O)c3ccc(c(Cl)c3)Oc3cc2cc(c3O[C@@H]2O[C@H](CO)[C@@H](O)[C@H](O)[C@H]2O[C@H]2C[C@](C)(N)[C@H](O)[C@H](C)O2)Oc2ccc(cc2Cl)[C@H]1O [Vancomycin]
[1]; read-out: C. difficile Strain 7-6011209 MIC
  MIC: 0.125 µg/mL (≈ 0.0863 µM)
[1]; read-out: C. difficile Strain 12055 MIC
  MIC: 0.25 µg/mL (≈ 0.173 µM)
[2]
  expected MIC of reference control strain: 1 µg/mL
C. difficile
  Highest MIC observed: 16^a μg/mL
  MIC90: 2^a μg/mL
